Measured values from patent publication US20040013721A1, “Controlled and sustained release properties of polyelectrolyte multilayer capsules” (priority 2000, published 2004).

Test: Permeability for probe polymers and dyes, and its temperature dependence, by confocal imaging
Type: physicochemical
Conditions: independent of their charge
Description: Monodisperse spheres (d=5.94 μm) of a weakly polymerized melamine-formaldehyde resin were used as templates (Microparticle GmbH). The particles were covered by alternating adsorption of sodium polystyrene sulfonate PSS (MW 70 000 g mol^−1, Aldrich) and polyallylamine hydrochloride PAH (MW 70 000 g mol^−1, Aldrich) from an aqueous solution of 10^−2 M PSS in 0.1 M sodium chloride. After 8 layers the core was dissolved in 0.1 M hydrochloric acid. The decomposition products were removed by washing with acid and an aqueous solution of 10^−2 M NaCl. Hollow polyelectrolyte capsules remained. […]
For the study of the permeability, fluorescence labeled polymers were used. […] The MW of the polymer was determined being 120 000 g/mol by gel permeation chromatography. […]
Laser scanning microscopy was performed for the determination of the loading grade of the capsules. […] The amounts of polymer/monomer in the interior were determined by integration of the fluorescence intensity inside the capsules. The exact concentration was taken from calibration curves, determined for each fluorescent probe separately. […]
The permeability of the capsules was studied for positively (PAH) and negatively charged (PSS), zwitterionic (albumine) and noncharged (dextran) fluorescent polymers (dextran). […] Then, the fluorescence intensity in the center of the capsules was measured by confocal imaging. […]

penetration of the capsule wall by small dye molecules	Molecule
can penetrate the capsule wall	CN(C)c1ccc2cc3ccc(N(C)C)cc3nc2c1 [acridine orange]
can penetrate the capsule wall	rhodamine
